Source: ChEMBL document CHEMBL1201862, “PubChem BioAssay data set” (2004)
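Exposure lasted 48 hours, with cells grown in 96-well plates and compounds tested at five concentrations. GI50 marks 50% less growth.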 Calls of active or inactive are those of the source. Cut-off read from the data, not from the text of the source: active = GI50 up to about 1.1 µM and inactive = higher.

Experiments:
Assay in all cases: growth of human tumour cells (NCI), 48 h
A498 = system: A498
CCRF-CEM = system: CCRF-CEM
DU-145 = system: DU-145
EKVX = system: EKVX
HOP-62 = system: HOP-62
MDA-N = system: MDA-N
MOLT-4 = system: MOLT-4
NCI/ADR-RES = system: NCI/ADR-RES
RPMI-8226 = system: RPMI-8226
RXF 393 = system: RXF 393
SF-295 = system: SF-295
SK-MEL-5 = system: SK-MEL-5
SNB-19 = system: SNB-19
786-0 = system: 786-0
BT-549 = system: BT-549
Malme-3M = system: Malme-3M
NCI-H522 = system: NCI-H522
SN12C = system: SN12C
Hs-578T = system: Hs-578T

Measured: GI50

COc1ccc2c(c1)CC[C@@H]1[C@@H]2CC[C@]2(C)C(=O)/C(=C/c3ccc(O)c(OC)c3)C[C@@H]12
inactive: A498 > 100 µM | CCRF-CEM 66.2 µM | DU-145 92.9 µM | EKVX 45.8 µM | HOP-62 62.7 µM | MDA-N 57.1 µM | MOLT-4 28.2 µM | NCI/ADR-RES 44.2 µM | RPMI-8226 34.7 µM | RXF 393 41.5 µM | SF-295 55.6 µM | SK-MEL-5 33.9 µM | SNB-19 > 100 µM

CN1CCCOC(c2ccc([N+](=O)[O-])cc2)O1 (stereo unspecified)
inactive: 786-0 > 100 µM | A498 > 100 µM | BT-549 > 100 µM | CCRF-CEM > 100 µM | DU-145 > 100 µM | EKVX > 100 µM | HOP-62 > 100 µM | MDA-N > 100 µM | MOLT-4 > 100 µM | Malme-3M > 100 µM | NCI-H522 > 100 µM | NCI/ADR-RES > 100 µM | RXF 393 > 100 µM | SF-295 > 100 µM | SK-MEL-5 > 100 µM | SN12C > 100 µM | SNB-19 > 100 µM

CCCC(C(=O)Nc1cccc2nc[nH]c12)C(=O)OCC (stereo unspecified)
inactive: 786-0 > 100 µM | A498 > 100 µM | BT-549 > 100 µM | DU-145 > 100 µM | EKVX > 100 µM | HOP-62 > 100 µM | Hs-578T > 100 µM | MOLT-4 > 100 µM | NCI-H522 44.1 µM | NCI/ADR-RES 79.1 µM | RPMI-8226 > 100 µM | SF-295 > 100 µM | SN12C > 100 µM | SNB-19 > 100 µM

CCCCC1=NNC(=O)C1
inactive: 786-0 > 100 µM | A498 > 100 µM | BT-549 > 100 µM | CCRF-CEM > 100 µM | EKVX > 100 µM | HOP-62 > 100 µM | Hs-578T 4.9 µM | MDA-N > 100 µM | MOLT-4 > 100 µM | Malme-3M > 100 µM | NCI-H522 > 100 µM | NCI/ADR-RES > 100 µM | RPMI-8226 > 100 µM | RXF 393 > 100 µM | SF-295 > 100 µM | SK-MEL-5 > 100 µM | SN12C > 100 µM

CN(C)/N=C1\CC(c2ccccc2)C(C#N)(C#N)C1(C#N)C#N (stereo unspecified)
inactive: 786-0 17.7 µM | A498 18.2 µM | CCRF-CEM 6.14 µM | DU-145 21 µM | EKVX 41.6 µM | HOP-62 24.4 µM | Hs-578T 29.7 µM | MDA-N 20.8 µM | MOLT-4 4.53 µM | Malme-3M 16.9 µM | NCI-H522 12.2 µM | NCI/ADR-RES 26.8 µM | RPMI-8226 11.8 µM | RXF 393 26.5 µM | SF-295 23.7 µM | SK-MEL-5 11.6 µM | SN12C 20.8 µM | SNB-19 24.5 µM

C=CCN1C(=O)/C(=C/c2ccco2)N=C1SC1OC(COC(C)=O)C(OC(C)=O)C(OC(C)=O)C1OC(C)=O (stereo unspecified)
inactive: A498 > 100 µM | BT-549 > 100 µM | DU-145 80.2 µM | EKVX > 100 µM | HOP-62 > 100 µM | MOLT-4 32.7 µM | Malme-3M 89.5 µM | NCI-H522 15.9 µM | NCI/ADR-RES > 100 µM | RPMI-8226 31.6 µM | RXF 393 44 µM | SF-295 > 100 µM | SK-MEL-5 > 100 µM

O=C1C[C@@]23CCC4(CC2CCC[C@H]3O1)OCCO4 (stereo partly specified)
inactive: 786-0 > 100 µM | A498 > 100 µM | DU-145 > 100 µM | EKVX > 100 µM | HOP-62 > 100 µM | Hs-578T > 100 µM | MDA-N > 100 µM | MOLT-4 > 100 µM | Malme-3M > 100 µM | NCI-H522 > 100 µM | NCI/ADR-RES > 100 µM | RPMI-8226 > 100 µM | RXF 393 > 100 µM | SF-295 > 100 µM | SK-MEL-5 > 100 µM | SN12C > 100 µM | SNB-19 > 100 µM

O=C1c2cc3c(cc2CC12Cc1ccc4c(c1C2=O)CCC4)CCC3 (stereo unspecified)
inactive: 786-0 65.6 µM | A498 > 100 µM | CCRF-CEM > 100 µM | DU-145 > 100 µM | EKVX > 100 µM | HOP-62 74 µM | Hs-578T > 100 µM | MDA-N > 100 µM | MOLT-4 > 100 µM | Malme-3M 41.7 µM | NCI-H522 > 100 µM | NCI/ADR-RES > 100 µM | RPMI-8226 > 100 µM | RXF 393 > 100 µM | SF-295 > 100 µM | SK-MEL-5 > 100 µM | SNB-19 94.6 µM

CS/C1=C(\c2ccc(C)cc2)N(c2ccccc2)C(=O)C(=O)N(c2ccccc2)/C(c2ccc(C)cc2)=C(/SC)SS1
inactive: 786-0 > 100 µM | A498 50.5 µM | CCRF-CEM > 100 µM | DU-145 > 100 µM | EKVX > 100 µM | HOP-62 > 100 µM | MDA-N > 100 µM | MOLT-4 > 100 µM | Malme-3M > 100 µM | NCI-H522 > 100 µM | NCI/ADR-RES > 100 µM | RPMI-8226 > 100 µM | SF-295 > 100 µM | SN12C > 100 µM | SNB-19 > 100 µM

CC(C)Oc1c(O)c2c3c(oc(=O)n3C=CC2c2ccccc2F)c1OC(C)C (stereo unspecified)
inactive: 786-0 33.4 µM | A498 38.6 µM | CCRF-CEM 24.8 µM | DU-145 63.8 µM | EKVX 41.1 µM | HOP-62 27.5 µM | Hs-578T 75.7 µM | MDA-N 30.9 µM | MOLT-4 18.7 µM | Malme-3M 39.1 µM | NCI-H522 33.8 µM | NCI/ADR-RES 34.4 µM | RPMI-8226 17.3 µM | RXF 393 21 µM | SF-295 25.6 µM | SK-MEL-5 18.4 µM | SN12C 38.4 µM | SNB-19 39.3 µM

COC(=O)C1CC2CC1C1C2SC(F)(F)C1(F)F (stereo unspecified)
inactive: 786-0 > 100 µM | A498 > 100 µM | DU-145 > 100 µM | EKVX > 100 µM | HOP-62 > 100 µM | Hs-578T > 100 µM | MDA-N > 100 µM | MOLT-4 > 100 µM | Malme-3M > 100 µM | NCI-H522 > 100 µM | NCI/ADR-RES > 100 µM | RPMI-8226 > 100 µM | RXF 393 > 100 µM | SF-295 > 100 µM | SK-MEL-5 > 100 µM | SN12C > 100 µM | SNB-19 > 100 µM

[O-]/[N+](=N/c1ncc(-c2ccccc2)cn1)c1ncc(-c2ccccc2)cn1
inactive: 786-0 99.5 µM | A498 > 100 µM | CCRF-CEM 34.4 µM | DU-145 > 100 µM | EKVX 63.5 µM | HOP-62 > 100 µM | Hs-578T > 76.6 µM | MDA-N > 100 µM | MOLT-4 > 64.6 µM | Malme-3M 32.2 µM | NCI-H522 14.8 µM | NCI/ADR-RES 62.1 µM | RPMI-8226 > 64.6 µM | RXF 393 60.5 µM | SF-295 73.5 µM | SK-MEL-5 42.7 µM | SN12C > 100 µM | SNB-19 > 58.3 µM

CSC1=N/C(=C\c2ccc(C)cc2)C(=O)N1CN1CCCCC1
inactive: 786-0 88.7 µM | A498 > 100 µM | DU-145 > 100 µM | EKVX 75.3 µM | HOP-62 > 100 µM | Hs-578T 56.5 µM | MDA-N > 100 µM | MOLT-4 > 100 µM | Malme-3M > 100 µM | NCI-H522 > 100 µM | NCI/ADR-RES 84.7 µM | RPMI-8226 32.3 µM | SF-295 > 100 µM | SK-MEL-5 > 100 µM | SN12C > 100 µM | SNB-19 > 100 µM

CSc1nncc2[nH]c(C)nc12
inactive: 786-0 > 100 µM | A498 > 100 µM | BT-549 > 100 µM | CCRF-CEM > 100 µM | EKVX > 100 µM | HOP-62 > 100 µM | MDA-N > 100 µM | MOLT-4 > 100 µM | Malme-3M > 100 µM | NCI-H522 > 100 µM | NCI/ADR-RES > 100 µM | RPMI-8226 > 100 µM | SF-295 > 100 µM | SK-MEL-5 > 100 µM | SN12C > 100 µM

CCOC(=O)[N-]c1ccc(S(=O)(=O)[O+](C)CCl)cc1.CCOC(=O)[N-]c1ccc(S(=O)(=O)[O+](C)CCl)cc1.NC(=O)N=O.NC(=O)OCCCl
inactive: 786-0 > 100 µM | A498 > 100 µM | CCRF-CEM > 100 µM | HOP-62 > 100 µM | MOLT-4 > 100 µM | Malme-3M > 100 µM | SF-295 > 100 µM | SN12C > 100 µM | SNB-19 > 100 µM

CC(CC(C)[C@H]1CCC2[C@H]3C(CC[C@@]21C)[C@@]1(C)CCC(O)C[C@H]1C[C@@H]3O)C(=O)O (stereo partly specified)
inactive: 786-0 > 100 µM | A498 > 100 µM | BT-549 > 100 µM | CCRF-CEM > 100 µM | DU-145 > 100 µM | EKVX > 100 µM | HOP-62 > 100 µM | MDA-N > 100 µM | MOLT-4 > 100 µM | Malme-3M > 100 µM | NCI-H522 > 100 µM | NCI/ADR-RES > 100 µM | RPMI-8226 > 100 µM | RXF 393 > 100 µM | SN12C > 100 µM | SNB-19 > 100 µM

Cc1ccccc1CN1CC2=C(CCN(Cc3ccccc3)C2=O)N2CCN=C12
inactive: 786-0 8.89 µM | A498 13.1 µM | BT-549 14.8 µM | DU-145 6.14 µM | EKVX 6.32 µM | HOP-62 9.16 µM | Hs-578T 14.4 µM | MOLT-4 9.66 µM | NCI-H522 3.73 µM | NCI/ADR-RES 4.09 µM | RPMI-8226 1.55 µM | RXF 393 54 µM | SF-295 3.21 µM | SK-MEL-5 2.63 µM | SN12C 5.6 µM | SNB-19 6.79 µM
